# Assay results: patent US20250346585A1 (Alexion Pharmaceuticals, Inc., priority 2022, published 2025)
# Target: Human complement C1s enzyme (Homo sapiens (Human), UniProt P09871)
# Assay: Human C1s enzyme assay
# Type: biochemical
# Settings: Human C1s enzyme assay of Example 3; read-out: IC50 (Stars)
# Procedure, shortened: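 Purified serum-derived human C1s (1.16 nM final) preincubated 5 min at room temperature with compound in 50 mM Tris, 1 M NaCl, pH 7.5. Z-L-Lys-SBzl thioester substrate and DTNB added (100 μM each, final); A405 read every 30 s for 30 min. IC50 from nonlinear regression of reaction rates against compound concentration.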
# Human complement C1s enzyme, sequence (P09871 438-688 limits assumed): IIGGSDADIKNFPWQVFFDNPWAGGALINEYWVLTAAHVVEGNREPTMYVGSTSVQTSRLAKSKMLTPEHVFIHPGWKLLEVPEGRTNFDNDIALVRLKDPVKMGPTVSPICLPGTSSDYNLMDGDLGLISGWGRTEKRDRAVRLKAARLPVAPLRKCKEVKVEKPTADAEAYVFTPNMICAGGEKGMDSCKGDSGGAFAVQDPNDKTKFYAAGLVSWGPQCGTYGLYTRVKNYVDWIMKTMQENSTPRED
# Human complement C1s enzyme, sequence (P09871 16-437 partner limits assumed): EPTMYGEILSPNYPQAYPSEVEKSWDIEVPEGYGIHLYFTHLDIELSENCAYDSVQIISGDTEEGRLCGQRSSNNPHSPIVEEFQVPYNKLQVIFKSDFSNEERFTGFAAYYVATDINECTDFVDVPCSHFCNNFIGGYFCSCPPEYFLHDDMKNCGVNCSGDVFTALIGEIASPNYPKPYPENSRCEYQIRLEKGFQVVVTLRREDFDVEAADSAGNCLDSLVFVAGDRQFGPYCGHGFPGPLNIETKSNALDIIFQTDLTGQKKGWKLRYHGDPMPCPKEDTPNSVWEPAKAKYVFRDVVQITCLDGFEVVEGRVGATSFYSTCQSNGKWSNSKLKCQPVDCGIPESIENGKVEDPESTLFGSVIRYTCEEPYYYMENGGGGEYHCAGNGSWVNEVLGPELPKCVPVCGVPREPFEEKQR
row,Structure (SMILES),IC50 [nM]
1,"C[C@@H](NC(=O)[C@@H]1CC2(CN1C(=O)CNC(=O)c1ccc3c(c1)-c1ccc(Cl)cc1C3(F)F)OCCO2)c1cc(C(=N)N)cs1 [Compound 192, (8S)—N-[(1R)-1-(4-carbamimidoylthiophen-2-yl)ethyl]-7-{2-[(7-chloro-9,9-difluorofluoren-3-yl)formamido]acetyl}-1,4-dioxa-7-azaspiro[4.4]nonane-8-carboxamide]",< 100
2,"N=C(N)c1csc(CNC(=O)[C@@H]2CC3(CN2C(=O)CNC(=O)c2ncc(-c4ccccc4)cc2F)OCCO3)c1 [Compound 105, (S)—N-((4-carbamimidoylthiophen-2-yl)methyl)-7-((3-fluoro-5-phenylpicolinoyl)glycyl)-1,4-dioxa-7-azaspiro[4.4]nonane-8-carboxamide]",< 100
3,"Cc1ccc(Oc2ccc(C(=O)NCC(=O)N3CC4(C[C@H]3C(=O)N[C@H](C)c3cc(C(=N)N)cs3)OCCO4)cc2)cc1 [Compound 22, (S)—N—((R)-1-(4-carbamimidoylthiophen-2-yl)ethyl)-7-((4-(p-tolyloxy)benzoyl)glycyl)-1,4-dioxa-7-azaspiro[4.4]nonane-8-carboxamide]",< 100
4,"N=C(N)c1csc(CNC(=O)[C@@H]2C[C@](F)(CF)CN2C(=O)CNC(=O)c2ccc3c(c2)-c2ccccc2C3(F)F)c1 [Compound 52, (2S,4R)—N-((4-carbamimidoylthiophen-2-yl)methyl)-1-((9,9-difluoro-9H-fluorene-3-carbonyl)glycyl)-4-fluoro-4-(fluoromethyl)pyrrolidine-2-carboxamide]",< 100
5,"Nc1ncc(-c2csc(CNC(=O)[C@@H]3CC4(CN3C(=O)CNC(=O)c3ccc(Oc5ccc(F)cc5)cc3)OCCO4)c2)s1 [Compound 187, (S)—N-((4-(2-aminothiazol-5-yl)thiophen-2-yl)methyl)-7-((4-(4-fluorophenoxy)benzoyl)glycyl)-1,4-dioxa-7-azaspiro[4.4]nonane-8-carboxamide]",> 1000

# Other lines, results leading:
row,IC50 [nM],Structure (SMILES)
1,< 100,"C[C@@H](NC(=O)[C@@H]1C[C@]2(CO)C[C@@H]2N1C(=O)CNC(=O)c1ccc2c(c1)-c1ccccc1C2(F)F)c1cc(C(=N)N)cs1 [Compound 53, (1S,3S,5R)—N—((R)-1-(4-carbamimidoylthiophen-2-yl)ethyl)-2-((9,9-difluoro-9H-fluorene-3-carbonyl)glycyl)-5-(hydroxymethyl)-2-azabicyclo [3.1.0]hexane-3-carboxamide]"
2,< 100,"C[C@@H](NC(=O)[C@@H]1C[C@](F)(CF)CN1C(=O)CNC(=O)c1ccc2c(c1)-c1ccccc1C2)c1cc(C(=N)N)cs1 [Compound 12, (2S,4R)—N-[(1R)-1-(4-carbamimidoylthiophen-2-yl)ethyl]-1-[2-(9H-fluoren-3-ylformamido)acetyl]-4-fluoro-4-(fluoromethyl)pyrrolidine-2-carboxamide]"
3,< 100,"C[C@@H](NC(=O)[C@@H]1C[C@@H](S(C)(=O)=O)CN1C(=O)CNC(=O)c1ccc2c(c1)-c1ccccc1C2(C)C)c1cc(C(=N)N)cs1 [Compound 178, (2S,4R)—N—((R)-1-(4-carbamimidoylthiophen-2-yl)ethyl)-1-((9,9-dimethyl-9H-fluorene-3-carbonyl)glycyl)-4-(methylsulfonyl)pyrrolidine-2-carboxamide]"
4,< 100,"C[C@@H](NC(=O)[C@@H]1CC2(CN1C(=O)CNC(=O)c1ccc3c(c1)-c1ccccc1C3)OCCO2)c1cc(C(=N)N)cs1 [Compound 111, (S)-7-((9H-fluorene-3-carbonyl)glycyl)-N—((R)-1-(4-carbamimidoylthiophen-2-yl)ethyl)-1,4-dioxa-7-azaspiro[4.4]nonane-8-carboxamide]"

# Same assay, conditions: Human complement C1s enzyme 1.16 nM, substrate Z-L-Lys-SBzl 100 μM, assay of Example 3; read-out: IC50 (Stars)
row,Structure (SMILES),IC50 [nM]
1,"C[C@@]12C[C@@H]1N(C(=O)CNC(=O)c1ccc(Oc3ccccc3)cc1)[C@H](C(=O)NCc1cc3c(s1)C(N)=NCC3)C2 [Compound 293, (1S,3S,5S)—N-((7-amino-4,5-dihydrothieno[2,3-c]pyridin-2-yl)methyl)-5-methyl-2-((4-phenoxybenzoyl)glycyl)-2-azabicyclo[3.1.0]hexane-3-carboxamide]",100 to 1000
2,"NCCCCNc1csc(CNC(=O)[C@@H]2CC3(CN2C(=O)CNC(=O)c2ccc(Oc4ccc(F)cc4)cc2)OCCO3)c1 [Compound 318, (S)-N-((4-((4-aminobutyl)amino)thiophen-2-yl)methyl)-7-((4-(4-fluorophenoxy)benzoyl)glycyl)-1,4-dioxa-7-azaspiro[4.4]nonane-8-carboxamide]",> 1000
3,"C[C@@H](NC(=O)[C@@H]1C[C@]2(Cn3cncn3)C[C@@H]2N1C(=O)CNC(=O)c1ccc2c(c1)-c1ccccc1C2(F)F)c1cc(C(=N)N)cs1 [Compound 281, (1S,3S,5S)-5-((1H-1,2,4-triazol-1-yl)methyl)-N—((R)-1-(4-carbamimidoylthiophen-2-yl)ethyl)-2-((9,9-difluoro-9H-fluorene-3-carbonyl)glycyl)-2-azabicyclo[3.1.0]hexane-3-carboxamide]",< 100
4,"NC(=O)Nc1csc(CNC(=O)[C@@H]2CC3(CN2C(=O)CNC(=O)c2ccc(Oc4ccc(F)cc4)cc2)OCCO3)c1 [Compound 317, (S)-7-((4-(4-fluorophenoxy)benzoyl)glycyl)-N-((4-ureidothiophen-2-yl)methyl)-1,4-dioxa-7-azaspiro[4.4]nonane-8-carboxamide]",> 1000
5,"NC(=O)CCNc1csc(CNC(=O)[C@@H]2CC3(CN2C(=O)CNC(=O)c2ccc(Oc4ccc(F)cc4)cc2)OCCO3)c1 [Compound 310, (S)-N-((4-((3-amino-3-oxopropyl)amino)thiophen-2-yl)methyl)-7-((4-(4-fluorophenoxy)benzoyl)glycyl)-1,4-dioxa-7-azaspiro[4.4]nonane-8-carboxamide]",> 1000
6,"N=C(N)c1csc(CNC(=O)[C@@H]2CC3(CN2C(=O)CNC(=O)c2ccc(-c4ccc(F)nc4)cc2)OCCO3)c1 [Compound 209, (S)—N-((4-carbamimidoylthiophen-2-yl)methyl)-7-((4-(6-fluoropyridin-3-yl)benzoyl)glycyl)-1,4-dioxa-7-azaspiro[4.4]nonane-8-carboxamide]",< 100
7,"NCC(=O)Nc1csc(CNC(=O)[C@@H]2CC3(CN2C(=O)CNC(=O)c2ccc(Oc4ccc(F)cc4)cc2)OCCO3)c1 [Compound 316, (S)-N-((4-(2-aminoacetamido)thiophen-2-yl)methyl)-7-((4-(4-fluorophenoxy)benzoyl)glycyl)-1,4-dioxa-7-azaspiro[4.4]nonane-8-carboxamide]",100 to 1000
8,"C[C@@H](NC(=O)c1ccc(-c2ccccc2)cc1)C(=O)N1CC2(C[C@H]1C(=O)NCc1cc(C(=N)N)cs1)OCCO2 [Compound 302, (S)-7-(([1,1′-biphenyl]-4-carbonyl)-D-alanyl)-N-((4-carbamimidoylthiophen-2-yl)methyl)-1,4-dioxa-7-azaspiro[4.4]nonane-8-carboxamide]",< 100
9,"N=C(N)c1csc(CNC(=O)[C@@H]2CC3(CN2C(=O)CN2CCc4cc(-c5ccc(F)cc5F)ccc4C2=O)OCCO3)c1 [Compound 245, (S)—N-((4-carbamimidoylthiophen-2-yl)methyl)-7-(2-(6-(2,4-difluorophenyl)-1-oxo-3,4-dihydroisoquinolin-2(1H)-yl)acetyl)-1,4-dioxa-7-azaspiro[4.4]nonane-8-carboxamide]",< 100
10,"Cc1cc2c(cc1C(=O)NCC(=O)N1CC3(C[C@H]1C(=O)N[C@H](C)c1cc(C(=N)N)cs1)OCCO3)-c1ccccc1C2(F)F [Compound 237, (S)—N—((R)-1-(4-carbamimidoylthiophen-2-yl)ethyl)-7-((9,9-difluoro-2-methyl-9H-fluorene-3-carbonyl)glycyl)-1,4-dioxa-7-azaspiro[4.4]nonane-8-carboxamide]",< 100
11,"CC(=O)Nc1csc(CNC(=O)[C@@H]2CC3(CN2C(=O)CNC(=O)c2ccc(Oc4ccc(F)cc4)cc2)OCCO3)c1 [Compound 288, (S)-N-((4-acetamidothiophen-2-yl)methyl)-7-((4-(4-fluorophenoxy)benzoyl)glycyl)-1,4-dioxa-7-azaspiro[4.4]nonane-8-carboxamide]",> 1000
12,"C[C@@H](NC(=O)[C@@H]1CC2(CN1C(=O)CNC(=O)c1ccc3c(c1)oc1ccccc13)OCCO2)c1cc(C(=N)N)cs1 [Compound 279, (S)—N—((R)-1-(4-carbamimidoylthiophen-2-yl)ethyl)-7-((dibenzo[b,d]furan-3-carbonyl)glycyl)-1,4-dioxa-7-azaspiro[4.4]nonane-8-carboxamide]",< 100

# More lines, now with the values ahead:
row,IC50 [nM],Structure (SMILES)
1,< 100,"C[C@@H](NC(=O)[C@@H]1C[C@](F)(CF)CN1C(=O)CNC(=O)c1ccc2c(c1)oc1ccccc12)c1cc(C(=N)N)cs1 [Compound 372, (2S,4R)—N—((R)-1-(4-carbamimidoylthiophen-2-yl)ethyl)-1-((dibenzo[b,d]furan-3-carbonyl)glycyl)-4-fluoro-4-(fluoromethyl)pyrrolidine-2-carboxamide]"
2,< 100,"N=C(N)c1csc([C@@H](CO)NC(=O)[C@@H]2C[C@@H](OC(F)F)CN2C(=O)CNC(=O)c2ccc3c(c2)C(F)(F)c2ccccc2-3)c1 [Compound 396, (2S,4R)—N—((R)-1-(4-carbamimidoylthiophen-2-yl)-2-hydroxyethyl)-1-((9,9-difluoro-9H-fluorene-2-carbonyl)glycyl)-4-(difluoromethoxy) pyrrolidine-2-carboxamide]"
3,< 100,"CC1c2ccccc2-c2ccc(C(=O)NCC(=O)N3C[C@H](S(C)(=O)=O)C[C@H]3C(=O)N[C@H](C)c3cc(C(=N)N)cs3)cc21 (stereo partly drawn) [Compound 390, (2S,4R)—N—((R)-1-(4-carbamimidoylthiophen-2-yl)ethyl)-1-((9-methyl-9H-fluorene-2-carbonyl)glycyl)-4-(methylsulfonyl)pyrrolidine-2-carboxamide]"

# Same assay, conditions: Human complement C1s enzyme 1.16 nM, substrate Z-L-Lys-SBzl; assay of Example 3; read-out: IC50 (Stars)
row,Structure (SMILES),IC50 [nM]
1,"COC[C@@]1(F)C[C@@H](C(=O)N[C@H](C)c2cc(C(=N)N)cs2)N(C(=O)CNC(=O)c2ccc3c(c2)-c2ccccc2C3C)C1 (stereo partly drawn) [Compound 418, (2S,4R)—N—((R)-1-(4-carbamimidoylthiophen-2-yl)ethyl)-4-fluoro-4-(methoxymethyl)-1-((9-methyl-9H-fluorene-3-carbonyl)glycyl)pyrrolidine-2-carboxamide]",< 100
